The values that follow come from US20100256402A1, “NOVEL SOLVATE” (Sandoz AG, priority 2007, published 2010).

Holding throughout (type): physicochemical
Series [1] is described as follows: Water solubility testing (saturated solution in distilled water, UV-vis 347 nm). As to conditions: for Concentration (water solubility): 30 min. How it is done:
A UV-vis Lambda 35 spectrophotometer (Perkin-Elmer) was used (A=347 nm, 1.0 cm quartz cells). Perkin Elmer® UV WinLab-5.1 software was used.
A saturated solution of Tigecycline in distilled water was prepared and the suspension was stirred at room temperature for 30 minutes with a stirring speed of 1000 U/min. The suspension was filtrated through a 0.45 μm filter. Finally the resulting solution was diluted 10000-fold and measured against water at a wavelength of 347 nm.

The nature of series [2]: Stability after storing different forms of Tigecycline at 80° C. for 7 days. The following applies: for 4-Epi-Tigecycline 7 days at 80° C. / Total impurities 7 days at 80° C.: after storing 7 days at 80° C.; for 4-Epi-Tigecycline ambient conditions / Total impurities ambient conditions: ambient conditions (before storage).
Series [3] is described as follows: Water content and hygroscopicity, open storage for 24 hours at 80% relative humidity. As to conditions: for water content 1 day at 80% rH: open storage 1 day at 80% rH; for water uptake 1 day at 80% rH: open storage for 24 hours at 80% relative humidity. The source says: Furthermore suitable crystalline forms of Tigecycline should be low hygroscopic, as water uptake may cause the formation of undesired byproducts like e.g. 4-Epi-Tigecycline. […] Therefore crystalline form X is less hygroscopic than forms I, II, Ill and V of WO 2006/128150 and also less hygroscopic than form I of WO 2007/127292.

Each structure is given as a SMILES string. In brackets after ≈: the same amount, converted by molar mass.

Take `CN(C)c1cc(NC(=O)CNC(C)(C)C)c(O)c2c1C[C@H]1C[C@H]3[C@H](N(C)C)C(O)=C(C(N)=O)C(=O)[C@@]3(O)C(O)=C1C2=O` [WO 2007/127292 I, Tigecycline]: the “Concentration (water solubility)” value in series [1] stood at 54 mg/mL. Moreover, in series [2] (listed as WO 2007/127792 I), the 4-Epi-Tigecycline 7 days at 80° C. came out at 1.26%, the Total impurities 7 days at 80° C. is 2.22%, the 4-Epi-Tigecycline ambient conditions was 0.34% and the Total impurities ambient conditions stood at 0.59%. Also, in series [3], the “water content [%] ambient conditions” value stood at 0.13%, the “water content 1 day at 80% rH” value is on record as 6.39% and the “water uptake 1 day at 80% rH” value is 6.26%. Further, the “water uptake 1 day at 80% rH” value in series [3] (listed as form I of WO 2007/127292) was 6.26%.

In series [2] (listed as WO 2007/127792 II), `CN(C)c1cc(NC(=O)CNC(C)(C)C)c(O)c2c1C[C@H]1C[C@H]3[C@H](N(C)C)C(O)=C(C(N)=O)C(=O)[C@@]3(O)C(O)=C1C2=O` [WO 2007/127292 II, Tigecycline] gave a 4-Epi-Tigecycline 7 days at 80° C. of 0.38%, a Total impurities 7 days at 80° C. of 0.91%, a 4-Epi-Tigecycline ambient conditions of 0.17% and a Total impurities ambient conditions of 0.24%. For the same compound, in series [3], the “water content [%] ambient conditions” value was determined as 0.18%, the “water content 1 day at 80% rH” value was found to be 0.25% and the “water uptake 1 day at 80% rH” value is on record as 0.07%.

As to `CN(C)c1cc(NC(=O)CNC(C)(C)C)c(O)c2c1C[C@H]1C[C@H]3[C@H](N(C)C)C(O)=C(C(N)=O)C(=O)[C@@]3(O)C(O)=C1C2=O` [X, Tigecycline], the “Concentration (water solubility)” value in series [1] turned out to be 162 mg/mL. In series [2], this compound came in with a 4-Epi-Tigecycline 7 days at 80° C. of 0.79%, a Total impurities 7 days at 80° C. of 3.48%, a 4-Epi-Tigecycline ambient conditions of 0.2% and a Total impurities ambient conditions of 0.58%. In series [3], the “water content [%] ambient conditions” value amounted to 0.29%, the “water content 1 day at 80% rH” value is recorded as 0.86% and the “water uptake 1 day at 80% rH” value turned out to be 0.57%. Besides, the “water uptake 1 day at 80% rH” value in series [3] (listed as form X) was determined as 0.57%.

For `CN(C)c1cc(NC(=O)CNC(C)(C)C)c(O)c2c1C[C@H]1C[C@H]3[C@H](N(C)C)C(O)=C(C(N)=O)C(=O)[C@@]3(O)C(O)=C1C2=O` [WO 2006/128150 IV, Tigecycline], the solubility at 30 min in series [1] (distilled water, water, thermodynamic from solid, distilled water, room temperature, stirred 30 minutes, 0.45 μm filter, read-out: Concentration (water solubility)) was determined as 322 mg/mL (≈ 550 mM). In series [2], this compound displayed a 4-Epi-Tigecycline 7 days at 80° C. of 0.38%, a Total impurities 7 days at 80° C. of 0.87%, a 4-Epi-Tigecycline ambient conditions of 0.23% and a Total impurities ambient conditions of 0.4%. Besides, in series [3], the “water content [%] ambient conditions” value stood at 2.90% and the “water uptake 1 day at 80% rH” value was 0.43%.

As to `CN(C)c1cc(NC(=O)CNC(C)(C)C)c(O)c2c1C[C@H]1C[C@H]3[C@H](N(C)C)C(O)=C(C(N)=O)C(=O)[C@@]3(O)C(O)=C1C2=O` [WO 2006/128150 II, Tigecycline], the “Concentration (water solubility)” value in series [1] came to 170 mg/mL. In series [2], this compound yielded a Total impurities ambient conditions of 1.6%.

As to `CN(C)c1cc(NC(=O)CNC(C)(C)C)c(O)c2c1C[C@H]1C[C@H]3[C@H](N(C)C)C(O)=C(C(N)=O)C(=O)[C@@]3(O)C(O)=C1C2=O` [WO 2006/128150 I, Tigecycline], the “Concentration (water solubility)” value in series [1] turned out to be 201 mg/mL. Besides, in series [2], the 4-Epi-Tigecycline ambient conditions was determined as 0.36% and the Total impurities ambient conditions stood at 0.75%. Also, in series [3], the “water uptake 1 day at 80% rH” value came out at 3.00%.

Consider `CN(C)c1cc(NC(=O)CNC(C)(C)C)c(O)c2c1C[C@H]1C[C@H]3[C@H](N(C)C)C(O)=C(C(N)=O)C(=O)[C@@]3(O)C(O)=C1C2=O` [WO 2006/128150 V, Tigecycline], for which, in series [2], the 4-Epi-Tigecycline 7 days at 80° C. came out at 0.18%, the Total impurities 7 days at 80° C. was found to be 0.37%, the 4-Epi-Tigecycline ambient conditions is less than 0.05% and the Total impurities ambient conditions amounted to 0.22%. Also, in series [3], the “water content [%] ambient conditions” value was determined as 0.19%.

For the compound `CN(C)c1cc(NC(=O)CNC(C)(C)C)c(O)c2c1C[C@H]1C[C@H]3[C@H](N(C)C)C(O)=C(C(N)=O)C(=O)[C@@]3(O)C(O)=C1C2=O` [WO 2006/128150 III, Tigecycline], the “Concentration (water solubility)” value in series [1] was 174 mg/mL. In series [2], this compound yielded a 4-Epi-Tigecycline ambient conditions of 0.16% and a Total impurities ambient conditions of 0.16%. The “water content [%] ambient conditions” value in series [3] stood at 0.69%.
